Test results taken from patent US9643928B2, “Crystalline forms of {[1-cyano-5-(4-chlorophenoxy)-4-hydroxy-isoquinoline-3-carbonyl]-amino}-acetic acid” (FIBROGEN, INC., priority 2013, dated 2017).
“Also recorded” adds a separate entry of the source.

How the values were obtained:
male Swiss Webster mice = experiment: Hemoglobin and hematocrit levels in mice after 1 week of intermittent oral dosing; type: in vivo
Protocol: Compound A (2, 6, 20, 60, 100 or 200 mg/kg as an oral gavage) or vehicle control were administered orally 3 times in 1 week on Monday, Wednesday, and Friday (4-8 male Swiss Webster mice/group). Three days after the last dose, all animals were euthanized and blood and serum were collected for complete blood counts (CBC) and serum chemistry.

[1] = test system: Female Lewis rats challenged with peptidoglycan-polysaccharide polymers (PG-PS); experiment: Anemia of chronic disease model (PG-PS challenge); type: in vivo
Protocol: Female Lewis rats were challenged with peptidoglycan-polysaccharide polymers (PG-PS) to induce arthritis and anemia. Arthritis and anemia were allowed to develop for 28 days prior to initiation of treatment with Compound A (oral gavage, 8 or 20 mg/kg) or vehicle (n=8/group). Treatments were administered 3 times per week (Monday, Wednesday, and Friday), for 2 weeks. Progression of the model was monitored by measurement of paw swelling and hematology parameters. Blood samples were analyzed for hematopoiesis and iron parameters. The study also included three non-challenged control groups (n=5/group) that were injected with saline rather than PG-PS and then treated with vehicle or Compound A (8 or 20 mg/kg) as described for the PG-PS animals. […] In addition to anemia, PG-PS-challenged rats developed systemic inflammation and arthritis, as indicated by elevated white blood cell counts and swelling of the extremities.

[2] = test system: Female Wistar rats with subtotal nephrectomy; experiment: Anemia induced by chronic kidney disease (5/6 nephrectomy, rat remnant kidney model); type: in vivo
Description: Female Wistar rats underwent subtotal nephrectomy (⅚) surgery to induce chronic kidney disease by ligating the left kidney to infarct ⅔ of the kidney while the right kidney underwent simultaneous total nephrectomy. As a control, additional animals underwent a sham surgery, without nephrectomy. Five weeks after surgery, anemia and chronic kidney disease in the nephrectomized animals were confirmed by clinical pathology and animals were then assigned to one of three treatment groups (n=8/group) and treated with 0 (vehicle), 8 or 20 mg/kg Compound A. The sham group (n=8) received 0 mg/kg (vehicle). Starting 6 weeks after surgery, all animals were dosed TIW (on Monday, Wednesday, and Friday) via oral gavage for 2 weeks. Whole blood samples were collected 5, 7, and 8 weeks after surgery.

healthy male volunteers = experiment: Single oral dose in healthy male volunteers: erythropoietin, reticulocyte and hemoglobin levels; type: in vivo, human
Protocol: A single dose of Compound A (Form 2, capsules) was administered orally to healthy male volunteers. Compound A was provided in 1 mg and 5 mg capsules with the dose being rounded to the nearest whole capsule. In cohorts 1-4 the doses were 0.05 mg/kg, 0.15 mg/kg, 0.3 mg/kg and 0.4 mg/kg respectively. The time points for blood collection were: predose, 8, 12, 16, 20, 24, 30, 48, 72, 96 and 120 hours, days 8, 10, 12, and 15 post dose.

[3] = Stability of solid forms in humidity chamber at 40° C. and 75% RH, re-analysed by XRPD; type: physicochemical; settings: one week
Protocol: The solids were then stored in the humidity chamber at 40° C. and 75% RH for a week to assess their stability under these conditions, and re-analysed by XRPD.

[4] = Maturation of Form 1 in water with or without seeds of Form 2, XRPD; type: physicochemical; settings: 50° C./room temperature (4 h-cycles), 75% RH
Protocol: A suspension of a solid mixture of Form 1 and Form 2 (1:1) in water was incubated at 50° C./room temperature (4 h-cycles), and at 75% RH for four days. After this time, the solid was analysed by XRPD. The crystalline pattern matched Form 2, and no traces of Form 1 were detected in this analysis.
Form 1 was suspended in water and incubated at 50° C./room temperature (4 h-cycles), and at 75% RH. In this case, the transformation of Form 1 into Form 2 was slower.

[5] = Reflux of Form 1 in water, monitored by XRPD; type: physicochemical
Description: Form 1 was refluxed in water and the crystallinity of the solid was monitored by XRPD.

[6] = Stability of Form 1 in water at 25° C., XRPD; type: physicochemical; settings: six days
Protocol: Form 1 was suspended in water at 25° C., and the crystallinity of the solid was analysed by XRPD over a period of time.

[7] = Relative stability of Form 1 and Form 2 (summary of Example 3); type: physicochemical
Description: The relative stability of Form 1 and Form 2 have been studied under different conditions (see Example 3).

[8] = all dose groups 2-200 mg/kg, oral gavage 3 times in 1 week, three days after last dose
[9] = 8 or 20 mg/kg oral 3 times per week for 2 weeks, statistically significant at 20 mg/kg
[10] = 8 and 20 mg/kg oral TIW, after 2 weeks of treatment
[11] = cohort 2, 0.15 mg/kg single oral dose
[12] = cohort 3, 0.3 mg/kg single oral dose

Which “Mean hematocrit (HCT) compared to vehicle control” value (male Swiss Webster mice; [8]) does the source give for `N#Cc1nc(C(=O)NCC(=O)O)c(O)c2c(Oc3ccc(Cl)cc3)cccc12` [Compound A, {[1-cyano-5-(4-chlorophenoxy)-4-hydroxy-isoquinoline-3-carbonyl]-amino}-acetic acid] here?
Its value is “significantly higher”.

What about the “Mean hemoglobin (Hb) compared to vehicle control” value (male Swiss Webster mice; [8]) of the same compound?
Its value is “significantly higher”.

And the “Mean red blood counts (RBC) compared to vehicle control” value (male Swiss Webster mice; [8])?
Its value is “significantly higher”.

What about the Hb levels increase (male Swiss Webster mice; lowest dose tested, 2 mg/kg, 1-week study) of the same compound?
Its Hb levels increase is “more than 1 g/dL”.

What about the “HCT decrease induced by PG-PS challenge” value [1, 9] of the same compound?
The value was “corrected”.

What about the “Hb decrease induced by PG-PS challenge” value [1, 9] of the same compound?
The value was “corrected”.

What about the “MCH decrease induced by PG-PS challenge” value [1, 9] of the same compound?
The value was “corrected”.

And the “RBC decrease induced by PG-PS challenge” value [1, 9]?
The value was “corrected”.

And the “TIBC increase induced by PG-PS challenge” value [1, 9]?
Its value is “corrected”.

And the “anemia associated with anemia of chronic disease” value ([1]; intermittent treatment)?
The value was “significantly alleviated”.

And the “Hb, HCT and RBC (all three parameters) relative to non-anemic sham control group” value ([2]; 20 mg/kg oral TIW, 2 weeks)?
Its value is “normalized”.

What about the “MCV in nephrectomized animals” value ([2]; 20 mg/kg, after 2 weeks of treatment) of the same compound?
Its value is “significantly higher”.

What about the “HCT compared to vehicle controls” value [2, 10] of the same compound?
The value was “significantly elevated”.

And the “Hb compared to vehicle controls” value [2, 10]?
Its value is “significantly elevated”.

What about the “RBC compared to vehicle controls” value [2, 10] of the same compound?
Its value is “significantly elevated”.

And the “MCH values in nephrectomized animals” value ([2]; 8 and 20 mg/kg, not significant)?
The value was “higher”.

And the “anemia associated with 5/6 nephrectomy” value ([2]; intermittent treatment for 2 weeks)?
Its value is “corrected”.

What about the “change in mean hemoglobin levels” value (healthy male volunteers; Cohort 1, 0.05 mg/kg, Day 0 to Day 8) of the same compound?
Its value is “did not change”.

And the “Reticulocyte values (% baseline ± SD)” value (healthy male volunteers; Cohort 1, 0.05 mg/kg, Day 3)?
The value was 104 ± 8 % baseline.

And the “Reticulocyte values (% baseline ± SD)” value (healthy male volunteers; Cohort 1, 0.05 mg/kg, Day 5)?
Its value is 111 ± 10 % baseline.

What about the “Reticulocyte values (% baseline ± SD)” value (healthy male volunteers; Cohort 1, 0.05 mg/kg, Day 8) of the same compound?
The value was 120 ± 20 % baseline.

And the “Reticulocyte values (% baseline ± SD)” value (healthy male volunteers; Cohort 2, 0.15 mg/kg, Day 3)?
The value was 111 ± 19 % baseline.

And the “Reticulocyte values (% baseline ± SD)” value (healthy male volunteers; Cohort 2, 0.15 mg/kg, Day 5)?
Its value is 121 ± 22 % baseline.

What about the “Reticulocyte values (% baseline ± SD)” value (healthy male volunteers; Cohort 3, 0.3 mg/kg, Day 3) of the same compound?
Its value is 127 ± 3 % baseline.

And the “Reticulocyte values (% baseline ± SD)” value (healthy male volunteers; Cohort 3, 0.3 mg/kg, Day 5)?
Its value is 141 ± 22 % baseline.

And the “Reticulocyte values (% baseline ± SD)” value (healthy male volunteers; Cohort 4, 0.4 mg/kg, Day 3)?
The value was 163 ± 21 % baseline.

What about the “Reticulocyte values (% baseline ± SD)” value (healthy male volunteers; Cohort 4, 0.4 mg/kg, Day 5) of the same compound?
Its value is 134 ± 22 % baseline.

What about the “time of peak erythropoietin levels” value (healthy male volunteers; cohort 1, 0.05 mg/kg single oral dose) of the same compound?
The value was “approximately 16.8 hours”.

What about the “mean maximum plasma erythropoietin concentration” value (healthy male volunteers; cohort 1, 0.05 mg/kg single oral dose, baseline mean 11.4 mIU/mL) of the same compound?
The value was 27.2 mIU/mL.

What about the “median maximum erythropoietin concentration” value (healthy male volunteers; [11]) of the same compound?
The value was 81.7 mIU/ml.

And the “time of peak erythropoietin levels (mean)” value (healthy male volunteers; [11])?
The value was 14 h.

And the “time until mean erythropoietin levels trended back to baseline” value (healthy male volunteers; [11])?
Its value is “approximately 5 days”.

What about the “Reticulocyte values (% baseline ± SD)” value (healthy male volunteers; cohort 2, 0.15 mg/kg, Day 8) of the same compound?
The value was 180 ± 53 % baseline.

What about the mean hemoglobin increase (healthy male volunteers; cohort 2, 0.15 mg/kg, Day 8) of the same compound?
The mean hemoglobin increase was 0.3 g/dL.

What about the “average maximum erythropoietin concentration” value (healthy male volunteers; [12]) of the same compound?
The value was “approximately 620 mIU/mL”.

What about the “time of peak erythropoietin levels (mean)” value (healthy male volunteers; [12]) of the same compound?
The value was 23 h.

And the “Reticulocyte values (% baseline ± SD)” value (healthy male volunteers; cohort 3, 0.3 mg/kg, Day 8)?
Its value is 231 ± 40 % baseline.

And the mean hemoglobin increase (healthy male volunteers; cohort 3, 0.3 mg/kg, Day 8)?
Its mean hemoglobin increase is 0.8 g/dL.

And the “median time to maximum EPO concentration” value (healthy male volunteers; cohort 4, 0.4 mg/kg single oral dose)?
The value was 20 h.

What about the “mean maximum plasma erythropoietin concentration” value (healthy male volunteers; cohort 4, 0.4 mg/kg single oral dose, pending re-analysis of one sample above upper limit of quantitation) of the same compound?
Its value is 2,900 mIU/mL.

And the “Reticulocyte values (% baseline ± SD)” value (healthy male volunteers; cohort 4, 0.4 mg/kg, Day 8)?
Its value is 376 ± 60 % baseline.

And the mean hemoglobin increase (healthy male volunteers; cohort 4, 0.4 mg/kg, Day 8)?
The mean hemoglobin increase was 0.7 g/dL.

What about the mean hemoglobin increase (healthy male volunteers; cohort 4, 0.4 mg/kg, Day 15) of the same compound?
Its mean hemoglobin increase is 1.1 g/dL.

For `N#Cc1nc(C(=O)NCC(=O)O)c(O)c2c(Oc3ccc(Cl)cc3)cccc12` [XRPD 7], which “Stability at 40° C./75% RH (form found by XRPD)” value [3] is on record?
The value was “changed into Form 2”.

For `N#Cc1nc(C(=O)NCC(=O)O)c(O)c2c(Oc3ccc(Cl)cc3)cccc12` [Form 1, {[1-cyano-5-(4-chlorophenoxy)-4-hydroxy-isoquinoline-3-carbonyl]-amino}-acetic acid], which “transformation on maturation in water without seeds of Form 2” value ([4]; after 4 days) is on record?
The value was “clear indication of Form 2 forming”.

And the “transformation on maturation in water without seeds of Form 2” value ([4]; after 15 days)?
Its value is “completely turned to Form 2”.

What about the “crystallinity by XRPD on reflux in water” value ([5]; after 2.5 h) of the same compound?
Its value is “several new diffraction peaks corresponding to Form 2”.

What about the “crystallinity by XRPD on reflux in water” value ([5]; after 10 h at reflux) of the same compound?
The value was “transformation of Form 1 into Form 2 was complete”.

What about the “changes in crystalline pattern in aqueous suspension” value [6] of the same compound?
The value was “remains unchanged; also recorded: No changes”.

And the hygroscopicity [7]?
Its hygroscopicity is “low hygroscopicity”.

What about the stability to humidity [7] of the same compound?
The stability to humidity was “stable”.

And the “conversion of form on maturation in isopropyl acetate (IPAc)” value ([7]; 5° C., 25° C. and 50° C.)?
The value was “converts to Form 2”.

And the “conversion of form on heating” value ([7]; heating above 200° C.)?
The value was “converts to Form 2”.

Which results are given for `N#Cc1nc(C(=O)NCC(=O)O)c(O)c2c(Oc3ccc(Cl)cc3)cccc12` [Form 2, {[1-cyano-5-(4-chlorophenoxy)-4-hydroxy-isoquinoline-3-carbonyl]-amino}-acetic acid]?
Stability at 40° C./75% RH (form found by XRPD) [3]: remained unchanged; also recorded: Form 2; hygroscopicity [7]: low hygroscopicity; stability to humidity [7]: stable; relative thermodynamic stability ([7]; conditions investigated): thermodynamically more stable than Form 1; transformation of Form 2 into Form 1 ([7]; conditions investigated): has not been observed
